According to patent publication US11149019B2, “Phenylpyridine derivative and pharmaceutical composition comprising the same” (Daewoong Pharmaceutical Co., Ltd., priority 2017, dated 2021):
pIC50: −log10 of the molar value.

Key:
ITK = target: T1, ITK (Homo sapiens, UniProt Q08881); assay: ADP-Glo + ITK Kinase enzyme system kit, inhibitory activity against ITK; format: biochemical; details: ITK enzyme 0.4 ng/ul, ATP final concentration of 25 ul, 30° C. for 1 hour, luminescence, duplicate
T1 construct: purchased Promega Corporation
T1 sequence (Q08881 1-620): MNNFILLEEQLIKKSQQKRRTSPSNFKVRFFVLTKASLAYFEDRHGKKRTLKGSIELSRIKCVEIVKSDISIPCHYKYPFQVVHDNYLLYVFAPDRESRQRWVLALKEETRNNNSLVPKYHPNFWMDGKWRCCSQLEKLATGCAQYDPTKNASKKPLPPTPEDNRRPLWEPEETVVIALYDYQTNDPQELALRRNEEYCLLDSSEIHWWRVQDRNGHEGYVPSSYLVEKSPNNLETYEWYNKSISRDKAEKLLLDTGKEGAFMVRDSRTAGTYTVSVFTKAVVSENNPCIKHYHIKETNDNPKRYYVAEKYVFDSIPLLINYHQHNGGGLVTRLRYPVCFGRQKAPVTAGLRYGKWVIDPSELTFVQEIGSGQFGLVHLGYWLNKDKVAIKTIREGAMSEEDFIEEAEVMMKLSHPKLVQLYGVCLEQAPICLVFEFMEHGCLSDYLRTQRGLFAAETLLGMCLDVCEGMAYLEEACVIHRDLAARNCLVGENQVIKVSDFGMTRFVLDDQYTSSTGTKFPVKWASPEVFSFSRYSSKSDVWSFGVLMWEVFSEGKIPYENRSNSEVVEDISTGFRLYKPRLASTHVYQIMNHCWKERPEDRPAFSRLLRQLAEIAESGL
Method: (§1) Inhibitory activities against BTK and ITK were measured for the compounds prepared in the above Examples as follows.
The inhibitory activity against ITK was evaluated using ‘ADP-Glo™+ITK Kinase enzyme system’ kit (Promega Corporation). In a white 96-well plate, 10 ul of ITK enzyme prepared so as to have a final concentration of 0.4 ng/ul was mixed with 5 ul of compounds having a final concentration of 1 uM in the case of evaluating a single concentration of compound and a concentration of 1000, 300, 100, 30, 10, 3, 1, 0.3, 0.1 and 0.03 nM in the case of IC50 evaluation, and then reacted at room temperature for 15 minutes. To the plate on which reactions were completed, 5 ul of substrate and 5 ul of ATP prepared so as to have a final concentration of […] added and then allowed to react at 30° C. for 1 hour. All wells of the plate were treated with 25 ul of ADP-Glo™ reagent and then allowed to react at 30° C. for 40 minutes. After that, all wells were treated with 50 ul of kinase detection buffer, and then allowed to react at 30° C. for 30 minutes under light shielding conditions. For the plate on which all reactions were completed, luminescence was measured and the results were calculated. Evaluation was carried out in duplicate, and negative control and positive control were calculated depending on whether or not the enzyme was added without treatment of the compound. The IC50 was calculated based on the calculated values.

BTK = target: T2, BTK (Homo sapiens, UniProt Q06187); assay: ADP-Glo + BTK Kinase enzyme system kit, inhibitory activity against BTK; format: biochemical; details: BTK enzyme 1 ng/ul, ATP 10 μM, 30° C. for 1 hour, luminescence, duplicate
T2 construct: purchased Promega Corporation
T2 sequence (Q06187 whole entry): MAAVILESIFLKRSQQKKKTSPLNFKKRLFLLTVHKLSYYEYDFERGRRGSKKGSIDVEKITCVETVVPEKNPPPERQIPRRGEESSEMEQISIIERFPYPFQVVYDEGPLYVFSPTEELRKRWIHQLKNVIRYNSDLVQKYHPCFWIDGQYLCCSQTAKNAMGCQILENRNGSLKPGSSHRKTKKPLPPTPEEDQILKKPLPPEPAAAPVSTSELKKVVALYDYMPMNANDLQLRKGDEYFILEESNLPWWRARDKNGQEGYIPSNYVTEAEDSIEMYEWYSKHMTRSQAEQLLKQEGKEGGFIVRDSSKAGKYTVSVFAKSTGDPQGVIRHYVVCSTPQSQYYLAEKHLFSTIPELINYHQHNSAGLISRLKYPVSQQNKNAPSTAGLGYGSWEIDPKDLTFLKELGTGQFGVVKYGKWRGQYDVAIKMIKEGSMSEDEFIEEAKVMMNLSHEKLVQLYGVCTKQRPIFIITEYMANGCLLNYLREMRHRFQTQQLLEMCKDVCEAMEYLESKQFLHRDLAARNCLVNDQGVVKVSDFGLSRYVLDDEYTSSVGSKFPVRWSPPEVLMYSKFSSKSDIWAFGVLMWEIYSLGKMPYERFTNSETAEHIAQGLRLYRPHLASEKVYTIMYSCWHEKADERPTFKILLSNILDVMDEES
Method: as §1
The inhibitory activities against BTK were evaluated using ‘ADP-Glo™+BTK Kinase enzyme system’ kit (Promega Corporation). In a white 96-well plate, 10 ul of BTK enzyme prepared so as to have a final concentration of 1 ng/ul was mixed with 5 μl of compounds having a final concentration of […] the case of evaluating a single concentration of compound and a concentration of 1000, 300, 100, 30, 10, 3, 1, 0.3, 0.1 and 0.03 nM in the case of IC50 evaluation, and then reacted at room temperature for 15 minutes. 5 ul of substrate and 5 ul of ATP prepared so as to have a final concentration of 10 μM were added to the plate on which reactions were completed, and then allowed to react at 30° C. for 1 hour. All wells of the plate were treated with 25 ul of ADP-Glo™ reagent and allowed to react at 30° C. for 40 minutes. After that, all wells were treated with 50 ul of kinase detection buffer, and then reacted at 30° C. for 30 minutes under light shielding conditions. For the plate on which all reactions were completed, luminescence was measured and the results were calculated. Evaluation was carried out in duplicate, and negative control and positive control were calculated depending on whether or not the enzyme was added without treatment of the compound. The IC50 was calculated based on the calculated values.

SMILES | pIC50 (ITK) | pIC50 (BTK)
C=CC(=O)Nc1cccc(-c2cc(C(=O)N3CCOCC3)cc(Nc3cc(C4CC4)[nH]n3)n2)c1 [Compound 28, N-(3-(6-(5-cyclopropyl-1H-pyrazol-3-ylamino)-4-(morpholine-4-carbonyl)pyridin-2-yl)phenyl)acrylamide] | 7.17 | 6.51
C=CC(=O)Nc1cccc(-c2cc(C(=O)N3CCOCC3)cc(Nc3ncc(C)s3)n2)c1 [Compound 29, N-(3-(6-((5-methylthiazol-2-yl)amino)-4-(morpholine-4-carbonyl)pyridin-2-yl)phenyl)acrylamide] | 7.73 | 8.28
C=CC(=O)Nc1cccc(-c2cc(CN3CCOCC3)cc(Nc3ncc(C)s3)n2)c1 [Compound 30, N (3(6(5-methylthiazol-2-ylamino)-4-(morpholinomethyl)pyridin-2-yl)phenyl)acrylamide] | 8.37 | 8.51
C=CC(=O)Nc1cccc(-c2cc(C(=O)N3CCOCC3)cc(Nc3cc(C)[nH]n3)n2)c1 [Compound 31, N-(3-(6-((5-methyl-1H-pyrazol-3-yl)amino)-4-(morpholine-4-carbonyl)pyridin-2-yl)phenyl)acrylamide] | 7.24 | 7.75
C=CC(=O)Nc1cccc(-c2cc(CN3CCOCC3)cc(Nc3ncc(C(=O)Nc4c(C)cccc4Cl)s3)n2)c1 [Compound 33, 2-((6-(3-acrylamidophenyl)-4-(morpholinomethyl)pyridin-2-yl)amino)-N-(2-chloro-6-methylphenyl)thiazole-5-carboxamide] | < 6.00 | 8.72
C=CC(=O)Nc1cccc(-c2cc(CN3CC(C)OC(C)C3)cc(Nc3ncc(C)s3)n2)c1 (centres unmarked) [Compound 34] | 8.51 | 8.62
C=CC(=O)Nc1cccc(-c2cc(N(C)C)cc(Nc3ncc(C)s3)n2)c1 [Compound 35, N-(3-(4-(dimethylamino)-6-((5-methylthiazol-2-yl)amino)pyridin-2-yl)phenyl)acrylamide] | < 6.00 | < 6.40
C=CC(=O)Nc1cccc(-c2cc(N3CCOCC3)cc(Nc3ncc(C)s3)n2)c1 [Compound 36, N-(3-(6-((5-methylthiazol-2-yl)amino)-4-morpholinopyridin-2-yl)phenyl)acrylamide] | 6.40 | < 7.00
C=CC(=O)Nc1cccc(-c2cc(CN3CCN(C)CC3)cc(Nc3ncc(C)s3)n2)c1 [Compound 37, N-(3-(4-((4-methylpiperazin-1-yl)methyl)-6-(5-methylthiazol-2-ylamino)pyridin-2-yl)phenyl)acrylamide] | 8.26 | 9.05
C/C=C/C(=O)Nc1cccc(-c2cc(Cc3ccccc3)cc(Nc3cc(C)[nH]n3)n2)c1 [Compound 38, (E)-N-(3-(4-benzyl-6-(5-methyl-1H-pyrazol-3-ylamino)pyridin-2-yl)phenyl)but-2-enamide] | 6.27 | < 6.40
C=CC(=O)Nc1cccc(-c2cc(CN3CCOCC3)cc(Nc3nnc(C)s3)n2)c1 [Compound 39, N-(3-(6-(5-methyl-1,3,4-thiadiazol-2-ylamino)-4-(morpholinomethyl)pyridin-2-yl)phenyl)acrylamide] | < 6.00 | 6.60
C=CC(=O)Nc1cccc(-c2cc(CN3CCOCC3)cc(Nc3cc(C)on3)n2)c1 [Compound 40, N-(3-(6-((5-methylisoxazol-3-ylamino)-4-(morpholino)methyl)pyridin-2-yl)phenyl)acrylamide] | < 6.00 | < 6.40
C=CC(=O)Nc1cccc(-c2cc(CN3CCOCC3)cc(Nc3nnc(C)o3)n2)c1 [Compound 41, N-(3-(6-((5-methyl-1,3,4-oxadiazol-2-yl)amino)-4-(morpholinomethyl)pyridin-2-yl)phenyl)acrylamide] | < 6.00 | < 6.40
C=CC(=O)Nc1cccc(-c2cc(CN3CCOCC3)cc(NC(=O)C3CC3)n2)c1 [Compound 42, N-(6-(3-acrylamidophenyl)-4-(morpholinomethyl)pyridin-2-yl)cyclopropanecarboxamide] | < 6.00 | < 6.40
C=CC(=O)Nc1cccc(-c2cc(CN3CCN(CCO)CC3)cc(Nc3ncc(C)s3)n2)c1 [Compound 43, N-(3-(4-((4-(2-hydroxyethyl)piperazin-1-yl)methyl)-6-(5-methylthiazol-2-ylamino)pyridin-2-yl)phenyl)acrylamide] | 8.68 | 8.64
C=CC(=O)Nc1cccc(-c2cc(CN3CCOCC3)cc(Nc3ncns3)n2)c1 [Compound 44, N-(3-(6-((1,2,4-thiadiazol-5-yl)amino)-4-(morpholinomethyl)pyridin-2-yl)phenyl)acrylamide] | 7.92 | 8.70
C=CC(=O)Nc1cccc(-c2cc(CN3CCN(C4CC4)CC3)cc(Nc3ncc(C)s3)n2)c1 [Compound 45, N-(3-(4-((4-cyclopropylpiperazin-1-yl)methyl)-6-((5-methylthiazol-2-yl)amino)pyridin-2-yl)phenyl)acrylamide] | 8.68 | 8.52
C=CC(=O)Nc1cccc(-c2cc(CN3C[C@@H](C)O[C@@H](C)C3)cc(Nc3ncc(C)s3)n2)c1 [Compound 46, N-(3-(4-(((2S,6R)-2,6-dimethylmorpholino)methyl)-6-(5-methylthiazol-2-ylamino)pyridin-2-yl)phenyl)acrylamide] | 8.80 | 8.77
C=CC(=O)Nc1cccc(-c2cc(CN3CCCC3)cc(Nc3ncc(C)s3)n2)c1 [Compound 47, N-(3-(6-((5-methylthiazol-2-yl)amino)-4-(pyrrolidin-1-ylmethyl)pyridin-2-yl)phenyl)acrylamide] | 8.09 | 8.52
C=CC(=O)Nc1cccc(-c2cc(CN3CCN(CCC)CC3)cc(Nc3ncc(C)s3)n2)c1 [Compound 48, N-(3-(6-((5-methylthiazol-2-yl)amino)-4-((4-propylpiperazin-1-yl)methyl)pyridin-2-yl)phenyl)acrylamide] | 8.37 | 8.96
C=CC(=O)Nc1cccc(-c2cc(CN3CCN(CCOC)CC3)cc(Nc3ncc(C)s3)n2)c1 [Compound 49, N-(3-(4-((4-(2-methoxyethyl)piperazin-1-yl)methyl)-6-(5-methylthiazol-2-ylamino)pyridin-2-yl)phenyl)acrylamide] | 8.51 | 8.89
C=CC(=O)Nc1cccc(-c2cc(CN3CCN(CC(F)(F)F)CC3)cc(Nc3ncc(C)s3)n2)c1 [Compound 50, N (3(6(5methylthiazol-2-ylamino)-4-((4-(2,2,2-trifluoroethyl)piperazin-1-yl)methyl)pyridin-2-yl)phenyl)acrylamide] | 8.30 | 8.66
C=CC(=O)Nc1cccc(-c2cc(CN3CCOCC3)cc(Nc3ncc(C(F)(F)F)s3)n2)c1 [Compound 51] | 8.66 | 8.28
C=CC(=O)Nc1ccc(F)c(-c2cc(CN3CCOCC3)cc(Nc3ncc(C)s3)n2)c1 [Compound 52] | 8.66 | 8.72
C=CC(=O)Nc1cccc(-c2cc(CN3CCN(CC)CC3)cc(Nc3ncc(C)s3)n2)c1 [Compound 53, N-(3-(4-((4-ethylpiperazin-1-yl)methyl)-6-(5-methylthiazol-2-yl)amino)pyridin-2-yl)phenylacrylamide] | 8.42 | 8.64
